Article PMC4802308, “Integrating computational and chemical biology tools in the discovery of antiangiogenic small molecule ligands of FGF2 derived from endogenous inhibitors” (Scientific Reports, 2016)

Experiments:
[1] = biological target: T1, FGF2 (Homo sapiens, UniProt P09038); test: Competition with biotinylated recombinant TSP-1 domain (E123CaG1) for binding to FGF2 (DELFIA); settings: for IC50: mean ± SE of 3 experiments; for fold more active than the initial query SM27 (competition IC50): vs SM27
T1 construct: purchased R&D Systems, obtained through the NCI-Biological Resources Branch

[2] = biological target: T1, FGF2; test: SPR direct binding to sensorchip-immobilized FGF2; settings: single site model, one experiment representative of two, read-out: Kd (dissociation constant) of FGF2/compound interaction
Method: SPR measurements were performed on a BIAcore X100 instrument (GE-Healthcare, WI). FGF2 was immobilized on a CM5 sensorchip (GE-Healthcare) as described, allowing the immobilization of 7,365 resonance units (RU) (410 fmol/mm^2 of FGF-2).
Suppl. Table S2. Determination of the affinity (Kd) of the FGF2/compound interactions by
Binding parameters were calculated by the non-linear curve fitting software package BIAevaluation
3.2 using a single site model with correction for mass transfer. Dissociation constant (Kd) values
were derived from the dissociation rate/association ratio. Only sensorgrams whose fitting gave
values of X2 lower than 10 were used {Khalifa, 2001 #213}.

[3] = biological target: T1, FGF2; test: Competition with biotinylated recombinant TSP-1 domain (E123CaG1) for binding to FGF2 (DELFIA); settings: 5 μM
Excerpt: Of the identified hits, 23 (Fig. 1 and Suppl. Table S1), made available from the NCI (NIH), were subjected to experimental analysis of FGF2 binding. We used an indirect assay, based on the competition of the tested molecules with the recombinant TSP-1 type III domain for binding to FGF2, an approach previously employed to analyze the FGF2/SM27 binding.
Figure 2 FGF2-binding property of the selected hits, analyzed with an indirect assay, as ability to compete with the TSP-1 fragment E123CaG1 (comprising the type III repeats domain) for FGF2 binding, as described in Methods. Binding of the biotinylated recombinant domain to FGF2 in the presence or absence of each molecule (5 μM). Data are the percentage of control binding, mean and SE of 3 experiments performed in triplicate. *p < 0.05 compared to control (ANOVA followed by Bonferroni test).
DELFIA® Microtitration plates and reagents were from PerkinElmer. Plates were coated overnight at 4 °C with FGF2 (0.1 μg in 40 μl /well PBS). After washing, non-specific binding sites were saturated by a 30 minute incubation with PBS 1% BSA. The biotin-labeled recombinant TSP-1 fragment (10 nM) was added in 40 μl PBS 1% BSA with or without the indicated concentration of small molecules, and incubated for 3 h at room temperature. The plates were washed with PBS 0.1% BSA and incubated for 1 h with 100 μl/well Eu-Labeled Streptavidin 1:1000 at room temperature. After washing, plates were incubated with DELFIA® Enhancement Solution. Time resolved fluorescence was measured using a Victor[3] multilabel plate reader (PerkinElmer).

[4] = system: FGF2-induced vessels sprouting, murine aortic rings; test: Aortic rings assay (FGF2-induced vessels sprouting, 3D Matrigel); design: species or system C57BL/6 mice; settings: FGF2 30 ng/ml, small molecules 100 μM
Method: Figure 4 Biological activity of the selected hits. (A) Endothelial cell proliferation. BAEC were exposed to FGF2 (5 ng/ml) with increasing concentrations of molecules (3–80 μM). After 72 h, cells were stained and proliferation measured as absorbance. Data are the percentage of control proliferation (in absence of molecules), mean of value from 2 experiments performed in triplicate. (B–D) Aortic ring assay. Sections of murine aortas were embedded in Matrigel, in the presence of FGF2 (30 ng/ml) and the indicated small molecule. The formation of capillary structures sprouting from the rings was analyzed after 7 and 11 days as described in Methods, and the angiogenic response expressed as area covered by the sprouting structures (arbitrary units, mean and SE, n ≥ 6). (B) Antiangiogenic activity of the small molecules (100 μM). (C) Examples of time-dependent and dose-dependent effect of two compounds (SM.2–20 and SM.2–23), tested at 100 (diamond), 50 (circle) and 25 μM (triangle) compared to control (black squares). (D) Representative pictures of sprouting from control and SM.2–23 treated aortic sections. Original magnification, 20x. (E,F) Chorioallantoic membrane assay. FGF2 (200 ng) was administered in the absence or presence of the indicated compound (0.5 μg) on day 8 (n = 10). (E) Angiogenic response is evaluated 4 days later, and expressed as number of vessels entering the sponge (mean and SD). (F) Representative pictures are shown. Original magnification, 50x.
Thoracic aortas were removed from mice, cleaned of perivascular adipose tissue and cut into 1 mm segments. Matrigel (75 μl, BD Biosciences) was added to 96 well plates, and allowed to gellify at 37 °C for 30 min. Aortic sections were added to the wells, and covered with a second layer of Matrigel and DMEM 5% FCS containing FGF2 (30 ng/ml) and the indicated concentration of the compounds. The formation of capillary structures sprouting from the rings was analyzed after 4, 7 and 11 days with an inverted-phase contrast microscope (IX70; Olympus). Images were analyzed with ImageJ 1.48, and the angiogenic response expressed as area covered by the sprouting structures (arbitrary units), substracted the area of the aortic section.

[5] = Dynamic Light Scattering (photon correlation spectroscopy) and Zeta potential analysis of aggregates in solution; format: physicochemical; settings: for Zeta potential: 1mg/ml solution, in mV (unit assumed)
Excerpt: Binding of 5 water-soluble compounds to FGF2 was further analyzed by surface plasmon resonance (SPR). All the compounds were able to bind FGF2 immobilized to a SPR sensorchip (Suppl. Figure S2). […] In the context of biophysical characterization of compounds, we also tested the formation of aggregates in solution by representative compounds SM.2-16, SM.2-20 and SM.2-23, using Dynamic Light Scattering, which allows measuring nanoparticle size and polydispersion index (by Photocorrelation Spectroscopy) and surface charge (Zeta potential). For all the molecules, at concentrations between 0.03 and 1 mg/ml, the hydrodynamic radius ranged from 2.1 to 2.9 nm, with polydispersity index values between 0.5 and 0.6 (Table 2): no significant variation in the hydrodynamic radius was observed upon decreasing the concentrations, typically indicative of a non-aggregated state. Zeta potential values were strongly negative (indicative of molecule dissociation), ranging from −48 to −52 (Table 2). These findings therefore indicate that the solutions are fairly monodispersed, containing mainly single, charged molecules.
The Photon correlation spectroscopy (PCS) and the Zeta Potential (Zp) values were measured using the Zetasizer Nano ZS (Malvern, Worcestshire, UK), as detailed in Supplementary Material. Data were analyzed by Zetasizer software, version 7.11 (Malvern, Worcestshire, UK).
Photon correlation spectroscopy and Zeta Potential analysis. Photon correlation spectroscopy (PCS) and the Zeta Potential (Zp) values were measured using the Zetasizer Nano ZS (Malvern, Worcestshire, UK) with a fixed 173° scattering angle and a 633 -nm-helium-neon-laser. Data were analyzed by Zetasizer software, version 7.11 (Malvern, Worcestshire, UK). The set up temperature […]
Samples were dissolved in 1 ml of deionized water with 1% HBSS (Hanks’ Balanced Salt solution) to obtain a concentration of about 3mg/ml. For PCS experiments the solution was further diluted with HBSS to the indicated concentration, transferred to a disposable folded capillary cell at room temperature and analyzed 10’ minutes post-diluting.
For Zp measurements, 1mg/ml solution of the compounds were used. Due to the high conductivity of buffer solution precluding electrophoretic mobility measurements, about 3mg of samples were solubilized in 1% HBSS and diluted with suitable volume of deionized water. The solution, was transferred to a disposable folded capillary cell (Malvern, Worcestshire, UK) at room temperature and analyzed 10’ post-diluting. […]

T1 sequence (P09038 134-288 limits assumed): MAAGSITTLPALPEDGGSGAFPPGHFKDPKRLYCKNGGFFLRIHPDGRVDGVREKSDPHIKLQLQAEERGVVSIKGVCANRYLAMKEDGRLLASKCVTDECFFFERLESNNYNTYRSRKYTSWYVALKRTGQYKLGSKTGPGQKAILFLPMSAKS

SMILES | IC50 [1] | Kd [2] | prevention of FGF2/TSP-1 binding (first screening) [3] | fold more active than the initial query SM27 (competition IC50) [1] | inhibition of FGF2-induced vessels sprouting [4] | Hydrodynamic Radius ([5]; 0.03125 mg/ml) | PdI (polydispersion index) ([5]; 0.03125 mg/ml) | Hydrodynamic Radius ([5]; 0.0625 mg/ml) | PdI (polydispersion index) ([5]; 0.0625 mg/ml) | Hydrodynamic Radius ([5]; 0.125 mg/ml) | PdI (polydispersion index) ([5]; 0.125 mg/ml) | Hydrodynamic Radius ([5]; 0.25 mg/ml) | PdI (polydispersion index) ([5]; 0.25 mg/ml) | Hydrodynamic Radius ([5]; 0.5 mg/ml) | PdI (polydispersion index) ([5]; 0.5 mg/ml) | Hydrodynamic Radius ([5]; 1 mg/ml) | PdI (polydispersion index) ([5]; 1 mg/ml) | Zeta potential [5]
O=C(Nc1ccc2cc(S(=O)(=O)O)cc(O)c2c1)Nc1ccc2cc(S(=O)(=O)O)cc(O)c2c1 [SM27, 6,6'-(carbonylbis(azanediyl))bis(4-hydroxynaphthalene-2-sulfonic acid), reference compound] | 3900 ± 230 nM | 335 nM | – | – | – | – | – | – | – | – | – | – | – | – | – | – | – | –
O=C(Nc1ccc2cc(S(=O)(=O)O)cc(S(=O)(=O)O)c2c1)Nc1ccc2cc(S(=O)(=O)O)cc(S(=O)(=O)O)c2c1 [SM.2–11, 7,7'-(carbonylbis(azanediyl))bis(naphthalene-1,3-disulfonic acid)] | – | – | lost | – | – | – | – | – | – | – | – | – | – | – | – | – | – | –
O=C(Nc1ccc2c(O)c(/N=N/c3ccccc3)c(S(=O)(=O)O)cc2c1)Nc1ccc2c(O)c(/N=N/c3ccccc3)c(S(=O)(=O)O)cc2c1 [SM.2–12, 4-hydroxy-7-(3-(5-hydroxy-6-((E)-phenyldiazenyl)-7-sulfonaphthalen-2-yl)ureido)-3-((E)-phenyldiazenyl)naphthalene-2-sulfonic acid] | – | – | reduced activity | – | – | – | – | – | – | – | – | – | – | – | – | – | – | –
COc1ccccc1/N=N/c1c(S(=O)(=O)O)cc2cc(NC(=O)Nc3ccc4c(O)c(/N=N/c5ccc6cc(S(=O)(=O)O)ccc6c5N)c(S(=O)(=O)O)cc4c3)ccc2c1O [SM.2–16, 3-((E)-(1-amino-6-sulfonaphthalen-2-yl)diazenyl)-4-hydroxy-7-(3-(5-hydroxy-6-((E)-(2-methoxyphenyl)diazenyl)-7-sulfonaphthalen-2-yl)ureido)naphthalene-2-sulfonic acid] | 590 ± 90 nM | 125 nM | – | 6–11 fold | significantly inhibited | 2.140 nm | 0.495 | 2.364 nm | 0.742 | 2.149 nm | 0.452 | 2.511 nm | 0.663 | 2.265 nm | 0.533 | 2.283 nm | 0.695 | −48.0
CC(=O)Nc1ccc(/N=N/c2c(S(=O)(=O)O)cc3cc(NC(=O)Nc4ccc5c(O)c(/N=N/c6ccccc6)c(S(=O)(=O)O)cc5c4)ccc3c2O)cc1 [SM.2–19, 3-((E)-(4-acetamidophenyl)diazenyl)-4-hydroxy-7-(3-(5-hydroxy-6-((E)-phenyldiazenyl)-7-sulfonaphthalen-2-yl)ureido)naphthalene-2-sulfonic acid] | 350 ± 30 nM | – | – | 6–11 fold | not | – | – | – | – | – | – | – | – | – | – | – | – | –
Cc1ccccc1/N=N/c1c(S(=O)(=O)O)cc2cc(NC(=O)Nc3ccc4c(O)c(/N=N/c5ccc6cc(S(=O)(=O)O)ccc6c5)c(S(=O)(=O)O)cc4c3)ccc2c1O [SM.2–20, 4-hydroxy-7-(3-(5-hydroxy-7-sulfo-6-((E)-(6-sulfonaphthalen-2-yl)diazenyl)naphthalen-2-yl)ureido)-3-((E)-o-tolyldiazenyl)naphthalene-2-sulfonic acid] | 500 ± 110 nM | 318 nM | – | 6–11 fold | significantly inhibited | 2.186 nm | 0.523 | 2.159 nm | 0.658 | 2.172 nm | 0.635 | 2.480 nm | 0.789 | 2.571 nm | 0.518 | 2.878 nm | 0.595 | −50.2
Cc1cccc(/N=N/c2c(S(=O)(=O)O)cc3cc(NC(=O)Nc4ccc5c(O)c(/N=N/c6ccc7cc(S(=O)(=O)O)ccc7c6)c(S(=O)(=O)O)cc5c4)ccc3c2O)c1 [SM.2–22, 4-hydroxy-7-(3-(5-hydroxy-7-sulfo-6-((E)-(6-sulfonaphthalen-2-yl)diazenyl)naphthalen-2-yl)ureido)-3-((E)-m-tolyldiazenyl)naphthalene-2-sulfonic acid] | 420 ± 90 nM | 39 nM | – | 6–11 fold | significantly inhibited | – | – | – | – | – | – | – | – | – | – | – | – | –
Cc1ccc(/N=N/c2c(S(=O)(=O)O)cc3cc(NC(=O)Nc4ccc5c(O)c(/N=N/c6ccc7cc(S(=O)(=O)O)ccc7c6)c(S(=O)(=O)O)cc5c4)ccc3c2O)c(C)c1 [SM.2–23, 3-((E)-(2,4-dimethylphenyl)diazenyl)-4-hydroxy-7-(3-(5-hydroxy-7-sulfo-6-((E)-(6-sulfonaphthalen-2-yl)diazenyl)naphthalen-2-yl)ureido)naphthalene-2-sulfonic acid] | 530 ± 110 nM | 93 nM | – | 6–11 fold | significantly inhibited | – | – | 2.370 nm | 0.677 | 2.765 nm | 0.557 | 2.951 nm | 0.59 | 2.597 nm | 0.539 | 2.877 nm | 0.545 | −52.2
